Reference: paper PMC5601625, “Defining a therapeutic window for kinase inhibitors in leukemia to avoid neutropenia” (Oncotarget, 2017)
Entries after “also recorded” stand apart in the source; their conditions may differ. Read-outs that look alike come from different tables or passages of the source.

Key:
[1] = test system: primary murine bone-marrow neutrophils; assay: Live cell imaging viability of primary bone-marrow neutrophils; conditions: for effect on mouse neutrophil viability (words): G-CSF- or GM-CSF-primed, inhibitors at 1 μM, over 24 hours
Source text: Using a high-throughput live cell imaging approach reported previously [15], we examined the effect of the kinase inhibitors on the viability of bone marrow neutrophils to determine their potential to cause neutropenia (Figure 2). Because G-CSF and GM-CSF are dominant regulators of granulopoiesis and neutrophil survival, and are commonly used in a clinical setting to mobilize hematopoietic stem cells into the blood and increase neutrophil production [27–31], we treated cells with these cytokines immediately prior to drug exposure. The addition of either cytokine prevents constitutive neutrophil apoptosis thereby increasing the window for detection of changes in viability induced by drug treatments.
For all above, data represent mean ± SEM from three independent samples.
Mouse bone marrow neutrophils were prepared as described [15]. Neutrophils were resuspended in phenol red-free DMEM/10% FBS for imaging studies. The purity of neutrophil preparations was routinely 96% ± 4% (Mean ± SD, n = 50) as assessed by cytology following May-Grünwald/Giemsa staining.
Kinase inhibitors were purchased from SYN kinase (Melbourne, Australia) and were used at 1 μM, unless otherwise specified, with dilutions performed in assay buffer containing 0.1% DMSO.
Viability was monitored using 2 μg/mL PI (Sigma). Images were captured every 30-60 min by the Zeiss Axiovert 200M Microscope at 37 °C/10% CO2. Quantitative analysis was performed using a custom-scripted MetaMorph (Molecular Devices) journal suite incorporating the count nuclei function, reconstruction & subtraction functions and Integrated Morphometry Analysis to select and analyze cells of interest.

[2] = test system: EOL-1; assay: Cell Titer Glo cell viability assay, 48 h; type: cell-based, human; conditions: 48 h, mean of 2 independent experiments, 0 = less than 10 nM, cell line not given, read-out: IC50 of inhibitors on cell lines, m (mean)
Method: (§1) The activity of the kinase inhibitor collection against a panel of human leukemia cell lines was determined in cell viability assays run over 48 h using the Cell Titer Glo reagent.
(§2) Figure 1 Effects of kinase inhibition on the proliferation of leukemia cells A. Human leukemia cell lines were treated with duplicate serial dilutions of kinase inhibitors and the effect on cell viability was determined by Cell Titer Glo assay after 48 hours. […] HL-60 cells were treated with serial dilutions of mTor/PI3K B. and MEK C. inhibitors and the effect on cell viability was determined after 48 hours. Data shown is the mean ± SEM of 3 independent experiments.
(§3) Leukemia and lymphoma cell lines were grown in RPMI containing 10% FCS. […] Cell lines are routinely tested for mycoplasma and genotyped by short tandem repeating (STR) profiling to confirm identity.
(§4) Compounds were obtained from SynMedChem and dissolved at […] in DMSO. Serial 2-fold dilutions of each compound were prepared in DMSO using a liquid handling robot (Janus, Perkin Elmer). Each dilution (100nL) was transferred to duplicate tissue culture plates containing 50 μL of media containing 5 × 10^3 cells using a 384 well pin tool. Cells were incubated for 48 h and cell viability was determined using Cell Titer Glow reagents as described by the manufacturer (Promega). Data was acquired using a luminescent plate reader (Envision, Perkin Elmer) and analysed using Activity Base (IDBS, Guilford, UK) and visualised using Spotfire (TIBCO, Palo Alto, CA) as described previously. Each cell line was assayed in independent experiments on at least two occasions. […] Serial 2-fold dilutions of each compound were prepared in media containing 0.2% DMSO and 50 μl of each dilution was added to 10^4 cells in 50 μl of media. Cells were incubated for 48 h and cell viability was determined using Cell Titer Glow assay as described above.

[3] = test system: HEL.92.1.7; assay: Cell Titer Glo cell viability assay, 48 h; type: cell-based, human; conditions: 48 h, mean of 2 independent experiments, 0 = less than 10 nM, cell line not given, read-out: IC50 of inhibitors on cell lines, m (mean)
Method: as §1, §2, §3, §4

[4] = test system: HL-60; assay: Cell Titer Glo cell viability assay, 48 h; type: cell-based, human; conditions: 48 h, mean of 2 independent experiments, 0 = less than 10 nM, cell line not given, read-out: IC50 of inhibitors on cell lines, m (mean)
Method: as §1, §2, §3, §4

[5] = test system: JURKAT; assay: Cell Titer Glo cell viability assay, 48 h; type: cell-based, human; conditions: 48 h, mean of 2 independent experiments, 0 = less than 10 nM, cell line not given, read-out: IC50 of inhibitors on cell lines, m (mean)
Method: as §1, §2, §3, §4

[6] = test system: K562; assay: Cell Titer Glo cell viability assay, 48 h; type: cell-based, human; conditions: 48 h, mean of 2 independent experiments, 0 = less than 10 nM, cell line not given, read-out: IC50 of inhibitors on cell lines, m (mean)
Method: as §1, §2, §3, §4

[7] = test system: KU-812; assay: Cell Titer Glo cell viability assay, 48 h; type: cell-based, human; conditions: 48 h, mean of 2 independent experiments, 0 = less than 10 nM, cell line not given, read-out: IC50 of inhibitors on cell lines, m (mean)
Method: as §1, §2, §3, §4

[8] = test system: MEG-01; assay: Cell Titer Glo cell viability assay, 48 h; type: cell-based, human; conditions: 48 h, mean of 2 independent experiments, 0 = less than 10 nM, cell line not given, read-out: IC50 of inhibitors on cell lines, m (mean)
Method: as §1, §2, §3, §4

[9] = test system: MOLT4; assay: Cell Titer Glo cell viability assay, 48 h; type: cell-based, human; conditions: 48 h, mean of 2 independent experiments, 0 = less than 10 nM, cell line not given, read-out: IC50 of inhibitors on cell lines, m (mean)
Method: as §1, §2, §3, §4

[10] = test system: MV4;11; assay: Cell Titer Glo cell viability assay, 48 h; type: cell-based, human; conditions: 48 h, mean of 2 independent experiments, 0 = less than 10 nM, cell line not given, read-out: IC50 of inhibitors on cell lines, m (mean)
Method: as §1, §2, §3, §4

[11] = test system: OCI-AML3; assay: Cell Titer Glo cell viability assay, 48 h; type: cell-based, human; conditions: 48 h, mean of 2 independent experiments, 0 = less than 10 nM, cell line not given, read-out: IC50 of inhibitors on cell lines, m (mean)
Method: as §1, §2, §3, §4

[12] = test system: THP-1; assay: Cell Titer Glo cell viability assay, 48 h; type: cell-based, human; conditions: 48 h, mean of 2 independent experiments, 0 = less than 10 nM, cell line not given, read-out: IC50 of inhibitors on cell lines, m (mean)
Method: as §1, §2, §3, §4

[13] = test system: U937; assay: Cell Titer Glo cell viability assay, 48 h; type: cell-based, human; conditions: 48 h, mean of 2 independent experiments, 0 = less than 10 nM, cell line not given, read-out: IC50 of inhibitors on cell lines, m (mean)
Method: as §1, §2, §3, §4

SMILES	effect on mouse neutrophil viability (words) [1]	IC50 ([2]; Homo sapiens, EOL1) [µM]	IC50 ([3]; Homo sapiens) [µM]	IC50 ([4]; Homo sapiens) [µM]	IC50 ([5]; Homo sapiens) [µM]	IC50 ([6]; Homo sapiens) [µM]	IC50 ([7]; Homo sapiens, KU812) [µM]	IC50 ([8]; Homo sapiens) [µM]	IC50 ([9]; Homo sapiens, MOLT-4) [µM]	IC50 ([10]; Homo sapiens) [µM]	IC50 ([11]; Homo sapiens, OCI-AML-3) [µM]	IC50 ([12]; Homo sapiens) [µM]	IC50 ([13]; Homo sapiens, U-937) [µM]	further results
CN(C)CC[C@H](CSc1ccccc1)Nc1ccc(S(=O)(=O)NC(=O)c2ccc(N3CCN(Cc4ccccc4-c4ccc(Cl)cc4)CC3)cc2)cc1[N+](=O)[O-] [ABT-737]	no impact on mouse neutrophil viability; also recorded: minimal effects on neutrophils													
O=C(Nc1c[nH]nc1-c1nc2cc(CN3CCOCC3)ccc2[nH]1)NC1CC1 [AT9283]	significantly affected neutrophil viability													effect on mouse neutrophil viability (words) ([1]; listed as AT-9283): cytotoxicity
Cc1cc(Nc2nc(N[C@@H](C)c3ccc(F)cc3)c(C#N)cc2F)n[nH]1 [AZ-960]	significantly affected neutrophil viability													
Cc1cc(Nc2nc(N[C@@H](C)c3ncc(F)cn3)ncc2Cl)n[nH]1 [AZD1480]	significantly affected neutrophil viability													effect on mouse neutrophil viability (words) ([1]; listed as AZD-1480): cytotoxicity
C[C@@H]1CCN(C(=O)CC#N)C[C@@H]1N(C)c1ncnc2[nH]ccc12 [CP690550]	did not													
N#CCNC(=O)c1ccc(-c2ccnc(Nc3ccc(N4CCOCC4)cc3)n2)cc1 [CYT387]	did not													
CN1CC[C@H](c2c(O)cc(O)c3c(=O)cc(-c4ccccc4Cl)oc23)[C@H](O)C1 [Flavopiridol]	induced rapid cell death													effect on mouse neutrophil viability (words) ([1]; listed as flavopiridol): significant impact on neutrophil viability
Oc1cccc(-c2nc(N3CCOCC3)c3oc4ncccc4c3n2)c1 [PI103]	some neutrophil toxicity	0.22	1.89	0.29	0.96	2.29	3.35	1.52	0.21	0.2	0.16	0.88	0.26	
CCc1c2c(nc3ccc(O)cc13)-c1cc3c(c(=O)n1C2)COC(=O)[C@]3(O)CC [SN-38]														effect of chemotherapeutics on neutrophil viability ([1]; GM-CSF-primed, dose-dependent, Figure 5D): potently decreased neutrophil viability
O=C(Nc1cccc(Cl)c1)Nc1ncc(CCNc2ncnc3ccsc23)s1 [SNS-314]		0.02	> 10	6.62	9.01	9.11	0.83	8.15	3.58	0.01	> 10	7.37	5.04	
CN(C)CCOc1cc(-c2cn[nH]c2)ccc1NC(=O)C1COc2ccccc2O1 (stereo not shown) [SR3677]		0.75	> 10	9.1	> 10	> 10	1.53	8.05	> 10	2.64	> 10	> 10	5.96	
Cc1c[nH]c(/C=C2\C(=O)Nc3ccccc32)c1CCC(=O)O [SU-5402]														IC50 [2]: 1.43 µM; IC50 [3]: > 10 µM; IC50 [4]: > 10 µM; IC50 [5]: > 10 µM; IC50 [6]: > 10 µM; IC50 [7]: 9.28 µM; IC50 [8]: > 10 µM; IC50 [9]: > 10 µM; IC50 [10]: 0.73 µM; IC50 [11]: > 10 µM; IC50 [12]: > 10 µM; IC50 [13]: > 10 µM
Cc1[nH]c(/C=C2\C(=O)Nc3ccccc32)c(C)c1CCC(=O)O [SU-6668]		0.84	> 10	> 10	> 10	8.11	> 10	> 10	> 10	5.11	> 10	> 10	> 10	
CCN(CC)CCNC(=O)c1c(C)[nH]c(/C=C2\C(=O)Nc3ccc(F)cc32)c1C [Sunitinib]		0.01	2.61	1.46	1.62	4.75	1.56	2.39	2.54	0.01	1.02	1.8	1.16	
CCc1nc(-c2cccc(C)c2)c(-c2ccnc(NC(=O)c3ccccc3)c2)s1 [TAK-715]		2.33	> 10	> 10	9.58	7.41	6.14	7.37	> 10	7.8	> 10	> 10	4.11	
Cc1cnc(Nc2ccc(OCCN3CCCC3)cc2)nc1Nc1cccc(S(=O)(=O)NC(C)(C)C)c1 [TG-101348]	cytotoxicity													
Cc1cc(C(C)Nc2ccccc2)c2nc(N3CCOCC3)cc(=O)n2c1 (stereo not shown) [TGX221]														IC50 [2]: 0.43 µM; IC50 [3]: > 10 µM; IC50 [4]: > 10 µM; IC50 [5]: 9.84 µM; IC50 [6]: 9.16 µM; IC50 [7]: > 10 µM; IC50 [8]: > 10 µM; IC50 [9]: > 10 µM; IC50 [10]: 0.65 µM; IC50 [11]: 9.72 µM; IC50 [12]: > 10 µM; IC50 [13]: 9.85 µM
CN(C)C/C=C/C(=O)Nc1cc2c(Nc3ccc(F)c(Cl)c3)ncnc2cc1O[C@H]1CCOC1 [TOVOK]		0.68	1.94	1.8	2.11	5.72	2.71	5.02	2.37	0.44	3.36	4.31	2.06	
COc1cc2c(N3CCN(C(=O)Nc4ccc(OC(C)C)cc4)CC3)ncnc2cc1OCCCN1CCCCC1 [Tandutinib]		0.02	> 10	7.58	4.38	8.85	6.6	7.91	9.77	0.08	4.87	7.42	7.44	
NC(=O)c1ccc(N(C(N)=O)c2c(F)cccc2F)nc1-c1ccc(F)cc1F [VX702]		5.5	> 10	> 10	> 10	> 10	> 10	> 10	> 10	> 10	> 10	> 10	> 10	
Cc1cc(Nc2cc(N3CCN(C)CC3)nc(Sc3ccc(NC(=O)C4CC4)cc3)n2)[nH]n1 [VX-680]		0.07	7.99	2.45	4.96	0.43	0.18	0.53	2.59	0.05	0.8	5.75	5.46	
COc1cc2c(Nc3ccc(Br)cc3F)ncnc2cc1OCC1CCN(C)CC1 [Vandetanib]		0.19	> 10	7.28	6.28	2.73	0.82	1.51	6.79	0.86	> 10	> 10	9.46	
Nc1ccc(C(=O)Nc2cccc(-c3nc(N4CCOCC4)c4oc5ncccc5c4n3)c2)cn1 [YM201636]														IC50 [2]: 5.88 µM; IC50 [3]: 7.14 µM; IC50 [4]: 4.82 µM; IC50 [5]: 3.94 µM; IC50 [6]: 9.65 µM; IC50 [7]: 4.28 µM; IC50 [8]: 9.12 µM; IC50 [9]: 6.99 µM; IC50 [10]: 7.33 µM; IC50 [11]: 3.88 µM; IC50 [12]: 8.78 µM; IC50 [13]: 2.39 µM
